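Step 1: Grow cells in 96-well plates. Step 2: Expose to compound for 48 hours at 5 concentrations. Step 3: Interpolate endpoints linearly; if unreached, use highest concentration. GI50 marks 50% less growth. At the TGI there is no net growth.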
What was measured:
Assay in all cases: NCI-60 cell line screen, 48 h
SN12C renal = tested on: SN12C renal
SK-MEL-28 melanoma = tested on: SK-MEL-28 melanoma
HCT-116 colon = tested on: HCT-116 colon
UACC-62 melanoma = tested on: UACC-62 melanoma
SNB-19 CNS = tested on: SNB-19 CNS
M14 melanoma = tested on: M14 melanoma
SK-MEL-5 melanoma = tested on: SK-MEL-5 melanoma
HCC-2998 colon = tested on: HCC-2998 colon
KM12 colon = tested on: KM12 colon
DU-145 prostate = tested on: DU-145 prostate

SMILES	TGI (SN12C renal)	TGI (SK-MEL-28 melanoma)	TGI (HCT-116 colon)	TGI (UACC-62 melanoma)	TGI (SNB-19 CNS)	TGI (M14 melanoma)	TGI (SK-MEL-5 melanoma)	TGI (HCC-2998 colon)	TGI (KM12 colon)	TGI (DU-145 prostate)	GI50 (SN12C renal)	GI50 (HCT-116 colon)	GI50 (UACC-62 melanoma)	GI50 (SNB-19 CNS)	GI50 (M14 melanoma)	GI50 (SK-MEL-5 melanoma)	GI50 (KM12 colon)	GI50 (SK-MEL-28 melanoma)	GI50 (DU-145 prostate)	GI50 (HCC-2998 colon)
CC(=O)OC1CC[C@@]2(C)C(CC(OC3OC(CO)C(O)C(O)C3O)[C@]3(C)C2CCC24CC23CC[C@H]4C(C)CC(O)[C@@H](O)C(C)(C)O)C1(C)C (stereo partly specified)	30.7 µM	17.4 µM	18.9 µM	16.6 µM	38.3 µM	22.6 µM	15.9 µM	25.5 µM	19.7 µM	–	–	–	–	–	–	–	–	–	–	–
COC(=O)CC[C@@H](NC(=O)C(C)NC(=O)COC1C(O)C(COC(=O)CCCCCCCCCCNC(=O)c2ccc([N+](=O)[O-])c3[nH]c4cc(Br)ccc4c(=O)c23)OC(OCc2ccccc2)C1NC(C)=O)C(N)=O (stereo partly specified)	> 100 µM	> 100 µM	> 100 µM	> 100 µM	> 100 µM	> 100 µM	> 100 µM	93.2 µM	> 100 µM	–	–	–	–	–	–	–	–	–	–	–
O=C(N/C(=C\c1cc(Cl)ccc1Cl)c1nc2ccccc2[nH]1)c1ccccc1	> 100 µM	> 100 µM	–	> 100 µM	> 100 µM	69.7 µM	53.3 µM	37.8 µM	88.9 µM	–	–	–	–	–	–	–	–	–	–	–
CCCCc1c2c(nc3c1CCc1cc(C=O)c(N)nc1-3)/C(=C/c1ccccc1)CCC2	> 100 µM	> 100 µM	> 100 µM	> 100 µM	> 100 µM	> 100 µM	> 100 µM	45.1 µM	> 100 µM	–	–	–	–	–	–	–	–	–	–	–
O=C(O)CSc1ccn(Cc2ccccc2)c1	> 100 µM	> 100 µM	> 100 µM	> 100 µM	> 100 µM	> 100 µM	> 100 µM	–	> 100 µM	> 100 µM	–	–	–	–	–	–	–	–	–	–
COC(=O)C1=C(O)C(C(=O)OC)[C@@]2(O)[C@@H](C(=O)OC)C(c3ccc(OC(=O)C(Cc4ccccc4)NC(C)=O)cc3)C[C@@H]1[C@@H]2C(=O)OC (stereo partly specified)	62.1 µM	–	45.1 µM	40.9 µM	> 100 µM	47.2 µM	39.3 µM	–	41.3 µM	–	22.6 µM	20.6 µM	16.1 µM	36.4 µM	20.7 µM	18 µM	15.3 µM	–	–	–
CC(=O)OCC1OC(n2c(-c3ccc(N)cc3)cc(-c3ccco3)c(C#N)c2=O)C(OC(C)=O)C(OC(C)=O)C1OC(C)=O (stereo unspecified)	> 50 µM	> 50 µM	> 50 µM	> 50 µM	> 50 µM	> 50 µM	> 50 µM	> 50 µM	> 50 µM	–	–	–	–	–	–	–	–	–	–	–
NNC(=S)N/N=C(\c1nc2ccc(Cl)cc2[nH]c1=O)C(O)c1ccc(Cl)cc1Cl (stereo unspecified)	> 100 µM	> 100 µM	> 100 µM	> 100 µM	> 100 µM	> 100 µM	> 100 µM	–	> 100 µM	–	–	–	–	–	–	–	–	–	–	–
CCCCC#Cc1c(I)n(C2OC(CO[Si](C)(C)C(C)(C)C)C3OC(C)(C)OC32)c(=O)[nH]c1=O (stereo unspecified)	22.2 µM	4.3 µM	17.9 µM	24 µM	–	34.8 µM	–	16.5 µM	24.5 µM	12.9 µM	10.2 µM	5.52 µM	11.8 µM	–	17.6 µM	–	11.7 µM	1.84 µM	3.48 µM	2.8 µM
COc1ccc(-c2cc(-c3ccco3)c(C#N)c(=O)n2C2OC(OC(=O)c3ccccc3)C(OC(=O)c3ccccc3)C2OC(=O)c2ccccc2)cc1 (stereo unspecified)	> 100 µM	> 100 µM	> 100 µM	–	> 100 µM	> 100 µM	> 100 µM	> 100 µM	> 100 µM	–	–	–	–	–	–	–	–	–	–	–
O=C(CC1Sc2ccccc2NC1=O)Nc1ccc([N+](=O)[O-])cc1[N+](=O)[O-] (stereo unspecified)	29.7 µM	31.8 µM	29.8 µM	28.8 µM	40.7 µM	31.2 µM	33.4 µM	> 100 µM	59.5 µM	–	–	–	–	–	–	–	–	–	–	–
O=C(CCCCCCCCC(=O)OCCCn1cc(C(=O)NC(=O)OCc2ccccc2)c(=O)[nH]c1=O)OCCCn1cc(C(=O)NC(=O)OCc2ccccc2)c(=O)[nH]c1=O	> 100 µM	> 100 µM	> 100 µM	> 100 µM	> 100 µM	> 100 µM	> 100 µM	> 100 µM	> 100 µM	–	–	–	–	–	–	–	–	–	–	–
COc1cc2c3c(c1OC)C1(C=CC(=O)C=C1)CC3N(C(=O)OC(C)(C)C(Cl)(Cl)Cl)CC2 (stereo unspecified)	26.6 µM	–	19 µM	28.4 µM	32.2 µM	28.8 µM	20.7 µM	–	23.2 µM	–	–	–	–	–	–	–	–	–	–	–
C[N+](C)(C)CC(=O)NC(=O)N/N=C\C(CC#N)CN(Cc1ccccc1)Cc1ccccc1 (stereo unspecified)	> 100 µM	> 100 µM	> 100 µM	> 100 µM	> 100 µM	> 100 µM	> 100 µM	> 100 µM	> 100 µM	–	–	–	–	–	–	–	–	–	–	–
O=C(CCCCCn1c2ccccc2c2c3c(c4c5ccccc5[nH]c4c21)C(=O)N(O)C3=O)N1CCOCC1	> 100 µM	5.4 µM	–	5.4 µM	36.8 µM	5.52 µM	3.06 µM	3.54 µM	5.03 µM	12.2 µM	3.37 µM	–	2.05 µM	3.05 µM	2.14 µM	1.64 µM	2.14 µM	2.32 µM	3.12 µM	1.85 µM
Nc1nc(Cl)cc2c1ncn2C1OC(CO)C(O)C1O (stereo unspecified)	–	> 100 µM	–	> 100 µM	> 100 µM	> 100 µM	> 100 µM	–	> 100 µM	> 100 µM	–	–	> 100 µM	> 100 µM	> 100 µM	> 100 µM	> 100 µM	> 100 µM	> 100 µM	–
COc1cc(OC)c(Oc2cccc(OC)c2OC)c(OC)c1	> 100 µM	> 100 µM	> 100 µM	> 100 µM	> 100 µM	> 100 µM	> 100 µM	> 100 µM	> 100 µM	–	–	–	–	–	–	–	–	–	–	–
O=c1c2ccccc2oc2nccnc12	> 100 µM	> 100 µM	> 100 µM	> 100 µM	> 100 µM	> 100 µM	> 100 µM	> 100 µM	> 100 µM	–	–	–	–	–	–	–	–	–	–	–
COc1ncn(C2C=C(CO)C(O)C2O)c(=O)n1 (stereo unspecified)	> 100 µM	> 100 µM	> 100 µM	> 100 µM	–	> 100 µM	> 100 µM	> 100 µM	> 100 µM	–	–	–	–	–	–	–	–	–	–	–

— PubChem BioAssay (NCI)
